Assay results from US12370235B2, “Synthetic, non-natural antimicrobial peptides inspired by Staphylococcus auricularis delta toxin” (University of Saskatchewan, priority 2021, dated 2025).
Ends that are not written are not given here.

Columns and labels:
[1] = system: Mannheimia haemolytica ATCC 33393; assay: MIC, broth dilution; type: cell-based; conditions: Table 11; highest concentration 25 μg/mL
Method in brief: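 Read-out is the lowest peptide concentration showing no growth after an overnight standing culture at 37 °C. Two-fold serial dilutions of 95%-pure peptide were tested against M. haemolytica ATCC 33393 at OD 6×10^−4 in cation-adjusted MH broth.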

[2] = system: S. aureus ATCC BAA-2313 (MRSA SCCmec type XI); assay: MIC, broth dilution; type: cell-based, Staphylococcus aureus; conditions: Table 5; STIP3 variants, highest concentration 100 μg/mL
Method in brief: (§1)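 MIC defined as the lowest peptide level giving no growth after overnight standing incubation at 37° C. Bacteria at OD 6×10^−4 in cation-adjusted MH broth met 2-fold serial peptide dilutions; peptide purity 95%.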

[3] = system: S. aureus ATCC BAA-44 (MRSA SCCmec type I); assay: MIC, broth dilution; type: cell-based, Staphylococcus aureus; conditions: Table 5; STIP3 variants, highest concentration 100 μg/mL
Method in brief: as §1

S. aureus ATCC 29213 = assay: MIC, broth dilution; type: cell-based, Staphylococcus aureus; conditions: Table 5; STIP3 variants, highest concentration 100 μg/mL
Method in brief: as §1

[4] = system: S. aureus ATCC BAA-42 (MRSA SCCmec type VI); assay: MIC, broth dilution; type: cell-based, Staphylococcus aureus; conditions: Table 5; STIP3 variants, highest concentration 100 μg/mL
Method in brief: as §1

[5] = system: S. aureus ATCC BAA-2094 (MRSA SCCmec type V); assay: MIC, broth dilution; type: cell-based, Staphylococcus aureus; conditions: Table 5; STIP3 variants, highest concentration 100 μg/mL
Method in brief: as §1

[6] = system: S. aureus ATCC 33592 (MRSA SCCmec type III); assay: MIC, broth dilution; type: cell-based, Staphylococcus aureus; conditions: Table 5; STIP3 variants, highest concentration 100 μg/mL
Method in brief: as §1

[7] = system: S. aureus ATCC BAA-41 (MRSA SCCmec type II); assay: MIC, broth dilution; type: cell-based, Staphylococcus aureus; conditions: Table 5; STIP3 variants, highest concentration 100 μg/mL
Method in brief: as §1

[8] = system: S. aureus ATCC BAA-1683 (MRSA SCCmec type IV); assay: MIC, broth dilution; type: cell-based, Staphylococcus aureus; conditions: Table 5; STIP3 variants, highest concentration 100 μg/mL
Method in brief: as §1

[9] = system: Candida lusitaniae AR 398; assay: MIC, YPD broth, CDC and FDA AR Candida isolate panel; type: cell-based; conditions: Table 9 below the line: only 200 or 100 μg/mL tested; values reported as 100 are ≤100 μg/mL
Experimental: (§2) MIC determination. MICs were measured using peptides with 95% purity. For bacterial studies, cation-adjusted Mueller Hinton (MH) broth was used as the growth medium whereas Yeast Peptone Dextrose (YPD; 10 g/L yeast extract, 20 g/L peptone, 20 g/L dextrose) was used for Candida spp. and other yeast. Microorganisms were diluted to an optical density of […] in MH or YPD broth and a 180 μl volume was mixed with 20 μl of peptide arrayed as a 2-fold dilution series in a flat-bottom 96-well microtitre plate. A control was performed using 20 μl of sterile water. Plates were incubated as standing cultures overnight at 37° C.

[10] = system: Saccharomyces cerevisiae AR 399; assay: as above; type: cell-based; conditions: Table 9 below the line: only 200 or 100 μg/mL tested; values reported as 100 are ≤100 μg/mL
Experimental: as §2

[11] = system: Saccharomyces cerevisiae AR 400; assay: as above; type: cell-based; conditions: Table 9 below the line: only 200 or 100 μg/mL tested; values reported as 100 are ≤100 μg/mL
Experimental: as §2

Kodamae ohmeri AR 396 = assay: as above; type: cell-based; conditions: Table 9 below the line: only 200 or 100 μg/mL tested; values reported as 100 are ≤100 μg/mL
Experimental: as §2

[12] = system: Candida haemulonii AR 393; assay: as above; type: cell-based; conditions: Table 9 below the line: only 200 or 100 μg/mL tested; values reported as 100 are ≤100 μg/mL
Experimental: as §2

[13] = system: Candida duobushaemulonii AR 391; assay: as above; type: cell-based; conditions: Table 9 below the line: only 200 or 100 μg/mL tested; values reported as 100 are ≤100 μg/mL
Experimental: as §2

[14] = system: Candida haemulonii AR 395; assay: as above; type: cell-based; conditions: Table 9 below the line: only 200 or 100 μg/mL tested; values reported as 100 are ≤100 μg/mL
Experimental: as §2

[15] = system: Candida duobushaemulonii AR 392; assay: as above; type: cell-based; conditions: Table 9 below the line: only 200 or 100 μg/mL tested; values reported as 100 are ≤100 μg/mL
Experimental: as §2

Candida krusei AR 397 = assay: as above; type: cell-based; conditions: Table 9 below the line: only 200 or 100 μg/mL tested; values reported as 100 are ≤100 μg/mL
Experimental: as §2

[16] = system: Candida duobushaemulonii AR 394; assay: as above; type: cell-based; conditions: Table 9 below the line: only 200 or 100 μg/mL tested; values reported as 100 are ≤100 μg/mL
Experimental: as §2

C. albicans MYA-2876 = assay: MIC, YPD broth; type: cell-based, Candida albicans; conditions: Table 8
Method in brief: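 Yeast cells were diluted in YPD broth, and 180 μl aliquots were mixed with 20 μl of peptide from 2-fold serial dilutions in flat-bottom 96-well microtitre plates. Wells receiving 20 μl sterile water served as controls. After standing incubation overnight at 37° C, the MIC was taken as the lowest peptide concentration with no visible microbial growth.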

Sequence | MIC (μg/mL) M. haemolytica [1] | MIC S. aureus ATCC BAA 2313 (XI) [2] | MIC S. aureus ATCC BAA 44 (I) [3] | MIC S. aureus ATCC 29213 (S. aureus ATCC 29213) | MIC S. aureus ATCC BAA 42 (VI) [4] | MIC S. aureus ATCC BAA 2094 (V) [5] | MIC S. aureus ATCC 33592 (III) [6] | MIC S. aureus ATCC BAA 41 (II) [7] | MIC S. aureus ATCC BAA 1683 (IV) [8] | MIC (μg/mL) Candida lusitaniae AR 398 [9] [µg/mL] | MIC (μg/mL) Saccharomyces cerevisiae AR 399 [10] [µg/mL] | MIC (μg/mL) Saccharomyces cerevisiae AR 400 [11] [µg/mL] | MIC (μg/mL) Kodamae ohmeri AR 396 (Kodamae ohmeri AR 396) | MIC (μg/mL) Candida haemulonii AR 393 [12] | MIC (μg/mL) Candida duobushaemulonii AR 391 [13] | MIC (μg/mL) Candida haemulonii AR 395 [14] | MIC (μg/mL) Candida duobushaemulonii AR 392 [15] | MIC (μg/mL) Candida krusei AR 397 (Candida krusei AR 397) [µg/mL] | MIC (μg/mL) Candida duobushaemulonii AR 394 [16] | MIC C. albicans MYA-2876 (C. albicans MYA-2876) [µg/mL]
TVGGLVKWILDTVKKFI [STIP3-5, TVGGLVKWILDTVKKFI] | 25 µg/mL | 25 µg/mL | 50 µg/mL | 50 µg/mL | 12.5 µg/mL | 25 µg/mL | 25 µg/mL | 25 µg/mL | 25 µg/mL | ≤ 100 | ≤ 100 | ≤ 100 | > (values below the line were determined using two concentrations of peptide 200 or 100 μg/mL) | > (values below the line were determined using two concentrations of peptide 200 or 100 μg/mL) | > (values below the line were determined using two concentrations of peptide 200 or 100 μg/mL) | > (values below the line were determined using two concentrations of peptide 200 or 100 μg/mL) | > (values below the line were determined using two concentrations of peptide 200 or 100 μg/mL) | ≤ 100 | > (values below the line were determined using two concentrations of peptide 200 or 100 μg/mL) | 100
TVGGLVKWILDTFKKFA [STIP3-11, TVGGLVKWILDTFKKFA] | > (> symbol indicates that no inhibition was observed at the highest concentration of peptide tested: 25 μg/mL) | 100 µg/mL | 100 µg/mL | 50 µg/mL | 50 µg/mL | 100 µg/mL | 50 µg/mL | 50 µg/mL | 50 µg/mL | ≤ 100 | ≤ 100 | ≤ 100 | > (values below the line were determined using two concentrations of peptide 200 or 100 μg/mL) | > (values below the line were determined using two concentrations of peptide 200 or 100 μg/mL) | > (values below the line were determined using two concentrations of peptide 200 or 100 μg/mL) | > (values below the line were determined using two concentrations of peptide 200 or 100 μg/mL) | > (values below the line were determined using two concentrations of peptide 200 or 100 μg/mL) | ≤ 100 | > (values below the line were determined using two concentrations of peptide 200 or 100 μg/mL) | 25
TVGGLVKWILDTVKKFK [STIP3-7, TVGGLVKWILDTVKKFK] | 25 µg/mL | > (no inhibition was observed at the highest concentration of peptide tested: 100 μg/mL for the STIP3 variants) | > (no inhibition was observed at the highest concentration of peptide tested: 100 μg/mL for the STIP3 variants) | > (no inhibition was observed at the highest concentration of peptide tested: 100 μg/mL for the STIP3 variants) | > (no inhibition was observed at the highest concentration of peptide tested: 100 μg/mL for the STIP3 variants) | > (no inhibition was observed at the highest concentration of peptide tested: 100 μg/mL for the STIP3 variants) | > (no inhibition was observed at the highest concentration of peptide tested: 100 μg/mL for the STIP3 variants) | > (no inhibition was observed at the highest concentration of peptide tested: 100 μg/mL for the STIP3 variants) | > (no inhibition was observed at the highest concentration of peptide tested: 100 μg/mL for the STIP3 variants) | ≤ 100 | ≤ 100 | ≤ 100 | > (values below the line were determined using two concentrations of peptide 200 or 100 μg/mL) | > (values below the line were determined using two concentrations of peptide 200 or 100 μg/mL) | > (values below the line were determined using two concentrations of peptide 200 or 100 μg/mL) | > (values below the line were determined using two concentrations of peptide 200 or 100 μg/mL) | > (values below the line were determined using two concentrations of peptide 200 or 100 μg/mL) | ≤ 100 | > (values below the line were determined using two concentrations of peptide 200 or 100 μg/mL) | 50
TVGGLVKWILKAVKKFA [STIP3-13, TVGGLVKWILKAVKKFA] | 12.5 µg/mL | 25 µg/mL | 25 µg/mL | 25 µg/mL | 25 µg/mL | 25 µg/mL | 25 µg/mL | 12.5 µg/mL | 25 µg/mL | ≤ 100 | ≤ 100 | ≤ 100 | > (values below the line were determined using two concentrations of peptide 200 or 100 μg/mL) | > (values below the line were determined using two concentrations of peptide 200 or 100 μg/mL) | ≤ 100 µg/mL | > (values below the line were determined using two concentrations of peptide 200 or 100 μg/mL) | ≤ 100 µg/mL | ≤ 100 | ≤ 100 µg/mL | 50
